According to patent publication US20100227880A1, “CHEMICAL COMPOUNDS” (priority 2006, published 2010):

The compounds below were run on HIV-1 Ba-L or HIV-1 IIIB infection of the HOS cell line (expressing hCXCR4/hCCR5/hCD4/pHIV-LTR-luciferase) (assay: HOS HIV-1 Infectivity Assay). Conditions: HOS cells, luciferase readout, strain not given, read-out: Activity Level.
Type: cell-based
Protocol: Compounds were profiled against two HIV-1 viruses, the M-tropic (CCR5 utilizing) Ba-L strain and the T-tropic (CXCR4 utilizing) IIIB strain. Ba-L was propagated in either peripheral blood lymphocytes or SupT1/CCR5+/CXCR4+ cells. IIIB was propagated in peripheral blood lymphocytes. Compounds were tested for their ability to block infection of the HOS cell line (expressing hCXCR4/hCCR5/hCD4/pHIV-LTR-luciferase) by either HIV-1 Ba-L or HIV-1 IIIB. Compound cytotoxicity was also examined in the absence of virus addition.
HOS cells (expressing hCXCR4/hCCR5/hCD4/pHIV-LTR-luciferase) were harvested and diluted in Dulbeccos modified Eagles media supplemented with 2% FCS to a concentration of 120,000 cells/ml. The cells were plated into 96-well plates (50 μl per well) and the plates were placed in a tissue culture incubator (370° C.; 5% CO2/95% air) for a period of 24 h.
Subsequently, 50 μl of the desired drug solution (2 times the final concentration) was added to each well and the plates were returned to the tissue culture incubator ([…]; 5% CO2/95% air) for 1 h. Following this incubation, 60 μl of diluted virus (4 times the final concentration) was added to 60 μl of 2× the final desired concentration of the compound and 100 μl this compound/virus mix was added to each well (approximately 2 million RLU per well of virus). The plates were returned to the tissue culture incubator ([…]; 5% CO2/95% air) and were incubated for a further 96 h.
Following this incubation the endpoint for the virally infected cultures was quantified following addition of Steady-Glo Luciferase assay system reagent (Promega, Madison, Wis.). Cell viability or non-infected cultures was measured using a CellTiter-Glo luminescent cell viability assay system (Promega, Madison, Wis.). All luminescent readouts are performed on a Topcount luminescence detector (Packard, Meridien, Conn.).

Compound | IC50 [nM]
N,N,N′-Trimethyl-N′-{[2-({methyl[(8S)-5,6,7,8-tetrahydro-8-quinolinyl]amino}methyl)imidazo[1,2-a]pyridin-3-yl]methyl}-1,2-ethanediamine [Example 17] | < 100

Same assay, conditions: Human immunodeficiency virus 1, HOS cells, luciferase readout, strain not given, read-out: Activity Level

Compound | IC50 [nM]
CN1CCN(Cc2c(CN(C)C3CCCc4cccnc43)nc3ccccn23)CC1 (stereo not drawn) [Example 31, N-methyl-N-({3-[(4-methyl-1-piperazinyl)methyl]imidazo[1,2-d]pyridin-2-yl}methyl)-5,6,7,8-tetrahydro-8-quinolinamine] | 100 to 500
CN(Cc1nc2ccccn2c1CNCCCN)C1CCCc2cccnc21 (stereo not drawn) [Example 32, N-[(2-{-[methyl(5,6,7,8-tetrahydro-8-quinolinyl)amino]methyl}imidazo[1,2-a]pyridin-3-yl)methyl]-1,3-propanediamine] | 100 to 500
CN(C)CCNC(=O)c1c(CN(C)C2CCCc3cccnc32)nc2ccccn12 (stereo not drawn) [Example 33, N-[2-(dimethylamino)ethyl]-2-{[methyl(5,6,7,8-tetrahydro-8-quinolinyl)amino]methyl}imidazo[1,2-a]pyridine-3-carboxamide] | 500 to 10000
CN(Cc1nc2ccccn2c1C(=O)N1CC(N)C1)C1CCCc2cccnc21 (stereo not drawn) [Example 34, N-({3-[(3-amino-1-azetidinyl)carbonyl]imidazo[1,2-a]pyridin-2-yl}methyl)-N-methyl-5,6,7,8-tetrahydro-8-quinolinamine] | 500 to 10000
CN(Cc1nc2ccccn2c1C(=O)NCCN1CCCC1)C1CCCc2cccnc21 (stereo not drawn) [Example 35, 2-{[methyl(5,6,7,8-tetrahydro-8-quinolinyl)amino]methyl}-N-[2-(1-pyrrolidinyl)ethyl]imidazo[1,2-a]pyridine-3-carboxamide] | 500 to 10000
CN(C)C1CCN(C(=O)c2c(CN(C)C3CCCc4cccnc43)nc3ccccn23)C1 (stereo not drawn) [Example 36, N-[(3-{[3-(dimethylamino)-1-pyrrolidinyl]carbonyl}imidazo[1,2-a]pyridin-2-yl)methyl]-N-methyl-5,6,7,8-tetrahydro-8-quinolinamine] | 100 to 500
CN1CCN(C(=O)c2c(CN(C)C3CCCc4cccnc43)nc3ccccn23)CC1 (stereo not drawn) [Example 37, N-methyl-N-({3-[(4-methyl-1-piperazinyl)carbonyl]imidazo[1,2-a]pyridin-2-yl}methyl)-5,6,7,8-tetrahydro-8-quinolinamine] | 500 to 10000
CC(C)N1CCN(C(=O)c2c(CN(C)C3CCCc4cccnc43)nc3ccccn23)CC1 (stereo not drawn) [Example 38, N-methyl-N-[(3-{[4-(1-methylethyl)-1-piperazinyl]carbonyl}imidazo[1,2-a]pyridin-2-yl)methyl]-5,6,7,8-tetrahydro-8-quinolinamine] | 500 to 10000
